Several values for one entry are separate records, joined by “and”; a condition that tells them apart may be missing. Equal values may be shown once.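 These data come from cells grown in 96-well plates and exposed to compound for 48 hours at five concentrations. GI50: concentration for 50% inhibition of growth. TGI marks complete inhibition of growth.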
Legend:
Assay in all cases: NCI anticancer screen, dose series, 48 h
[1] = test system: TK-10 renal
[2] = test system: SK-MEL-28 melanoma
[3] = test system: U251 CNS
[4] = test system: HL-60(TB) leukemia
[5] = test system: HCT-116 colon
[6] = test system: SF-295 CNS
[7] = test system: ACHN renal
[8] = test system: 786-0 renal
[9] = test system: A498 renal
[10] = test system: OVCAR-8 ovarian

Row | Structure (SMILES) | TGI [1] [µM] | TGI [2] | TGI [3] | TGI [4] [µM] | TGI [5] | TGI [6] [µM] | TGI [7] [µM] | TGI [8] [µM] | TGI [9] [µM] | TGI [10] | GI50 [1] [µM] | GI50 [2] [µM] | GI50 [3] [µM] | GI50 [4] [µM] | GI50 [5] | GI50 [6] [µM] | GI50 [7] [µM] | GI50 [8] [µM] | GI50 [9] | GI50 [10] [µM]
1 | COc1cc2c(cc1OC)c1c(OC)c(OC)cc3c1c1c2sc(=S)n1CC3 | > 100 | > 100 µM | > 100 µM | 81.8 | > 100 µM | > 100 | > 100 | 35.1 | > 100 | > 100 µM |  |  |  |  |  |  |  |  |  | 
2 | O=S(=O)(Nc1ccc2ccccc2c1)c1ccc(-c2cnc(C3CC3)o2)cc1 | > 100 | 20.8 µM | 15.7 µM | 6.99 | 12.7 µM | 5.46 | 42.8 | 18.7 | 5.28 | 67.1 µM | 5.81 | 4.8 | 1.25 | 0.407 | 0.746 µM | 0.452 | 2.61 | 3.1 | 0.462 µM | 2.88
3 | COc1ccc2c(c1)N(CCO)C1=C(C(=O)OC1)C2c1ccccc1 (centres undefined) | > 50 | > 50 µM | > 50 µM | 2.84 | 15.6 µM | 2.73 | > 50 | > 50 | 3.11 | > 50 µM | 2.11 | 2.98 | 1.81 | 1.15 | 1.97 µM | 0.888 | 3.78 | 2.7 | 0.841 µM | 2.03
4 | CC1=C2[C@H](c3ccccc3)C3C=CC2(c2ccccc23)N(C(=O)C(c2ccccc2)c2ccccc2)C1=O (some centres undefined) | > 100 | > 100 µM | > 100 µM | > 100 | > 100 µM | > 100 | > 100 | > 100 | > 100 | > 100 µM |  |  |  |  |  |  |  |  |  | 
5 | C1CCN2CC3CCCN4CCCC(C2C1)C34 (centres undefined) | > 100 | > 100 µM | > 100 µM | > 100 | > 100 µM | > 100 | > 100 | > 100 | > 100 | > 100 µM |  |  |  |  |  |  |  |  |  | 
6 | CCCCCCCCCOC(=S)NCCCCC | 56.4 | > 100 µM | 48.6 µM | 39.5 | 44.8 µM | > 100 | 69.9 | > 100 | 59 | > 100 µM |  |  |  |  |  |  |  |  |  | 
7 | CCC[CH2][Sn]([CH2]CCC)([O]C(=O)c1cc(F)cc(F)c1)[O][Sn]([CH2]CCC)([CH2]CCC)[O]C(=O)c1cc(F)cc(F)c1 | 2.72 | 2.38 µM | 2.28 µM | 2.23 | 2.63 µM | 3.06 | 2.83 | 2.53 | 2.83 | 2.54 µM | 1.41 | 1.14 | 1.08 | 0.374 | 1.35 µM | 1.67 | 1.51 | 1.27 | 1.43 µM | 1.28
8 | CCN(CC)CC(C)(C)C(=O)/C=C/c1ccc(/C=C/C(=O)C(C)(C)CN(CC)CC)cc1 | 2.49 | 2.28 µM | 1.57 µM | 0.22 | 0.74 µM | 2.54 | 3.09 | 0.411 | 3.49 | 0.774 µM |  |  |  |  |  |  |  |  |  | 
9 | COc1ccc(/C=C\c2cc(OC)c(OC)c(OC)c2)c(O)c1O | 55.8 | 49.6 µM and 60.2 µM | 18.7 µM and 6.09 µM | 0.376 | 14.3 µM and 24 µM |  | 57.7 | 16.3 |  | 7.13 µM and 9.64 µM |  | 0.655 | 0.0933 |  | 0.136 µM and 1.33 µM | 0.0286 |  |  | 0.247 µM and 0.05 µM | 0.0517
10 | CSc1ccc(C2=NN(C(C)=O)C(c3ccc(F)cc3)C2)cc1 (centres undefined) | 63.7 | 34.2 µM | 21.4 µM | 23.6 | 20.1 µM | 36.2 | 35.6 | 35.7 | 26.8 | 42 µM | 19.8 | 17 | 5.96 | 5.56 | 7.11 µM | 16.4 | 16.9 | 15.6 | 12.5 µM | 19.4
11 | COc1cc(-c2ccc(NC(=O)NC3CC3)c(OC)c2)ccc1NC(=O)NC1CC1 | > 100 | > 100 µM | > 69.3 µM | > 100 | > 100 µM | > 100 | > 100 | > 100 | > 100 | > 100 µM | 13.9 | > 29.3 | 3.11 | 3.75 | 3.22 µM | 4.36 | 7.05 | 29.5 | 19.2 µM | 6.83
12 | C/C=C(/C)C(=O)OC1C=C(CO)C(=O)C(OC(=O)C(C)(O)C(C)Cl)C1C(C)C (centres undefined) | 3.05 | 2.98 µM | 2.8 µM | 5.74 | 2.49 µM | 4.79 | 2.06 | 3.12 | 3.87 | 5.3 µM | 1.55 | 1.46 | 1.38 | 0.358 | 1.07 µM | 1.94 | 0.829 | 1.67 | 1.9 µM | 1.56
13 | CCOC(=O)C1SC(=Nc2ccc(Cl)cc2C)N=C1C (centres undefined) | 65.2 | 73.5 µM | 31.6 µM | 27.1 | 28.4 µM | 52.9 | 57.2 | 32.6 | 98.1 | > 100 µM |  |  |  |  |  |  |  |  |  | 
14 | COC(=O)C(=O)C(C(=O)C(=O)Nc1ccc(C)cc1)c1nc2ccc(C(=O)c3ccccc3)cc2[nH]c1=O (centres undefined) | > 100 | > 100 µM | > 100 µM | > 100 | > 100 µM | > 100 | > 100 | > 100 | > 100 | > 100 µM |  |  |  |  |  |  |  |  |  | 
15 | COC(=O)c1ccc2c(c1)c1c(C)c3ccncc3c(C)c1n2C | 70.3 | 50.1 µM | > 100 µM | 39.4 | > 100 µM | 7.48 | > 100 | 18 | 13.7 | > 100 µM | 0.89 | 0.441 | 0.322 | 1.13 | 0.0495 µM | 0.0647 | 0.0519 | 0.268 | 0.583 µM | 0.121
